# Data: patent US4746349A, “Method and compositions for suppressing the nitrification of ammonium in plant growth medium” (American Cyanamid Company, priority 1986, dated 1988)
# Counter-ions that a name gives are not always drawn.
# Tests used:
# [1] = system: Nitrabacter; test: Nitrite in ammonium amended field soil incubated at 38° C.; details: soil 38° C.; for Nitrite, reported as nitrogen: 0.50 ppm, 200 ppm N
# Method: Determination of Nitrification Inhibition of Soil amended with 200 ppm of nitrogen as ammonium sulfate and 0.5 ppm of Nitrapyrin or 0.5 ppm of Maduramicin, monoammonium salt.
# Soil samples prepared as described in Example 1 above are incubated at 38° C. for 20 weeks. Samples are taken at intervals during the 20 week period, extracted with 2M KCl (10:1 v/w), and assayed for ammonium nitrite and nitrate by standard steam distillation methods.
# [2] = system: corn (Pioneer 3352); test: Field evaluation: yield of corn, sandy loam plots; type: in vivo; details: for AVERAGE YIELD 4-REPLICATES: sandy loam
# Source text: Field Evaluation: Field evaluations are based on the N content of corn leaf tissue and grain yield utilizing two soil types. Replicate (4X) field plots are established at two different locations, one having (I) silt loam soil and one (II) with sandy loam soil. These soils had been previously cropped to non-fertilized corn to reduce the level of residual N. Maduramicin monoammonium salt is applied (0.25, 0.125, 0.07 ppm) with NH3 (84 or 168 kg N/ha) through a "downstream" by an injection system into silt loam plots. Nitrapyrin (0.25 ppm=0.56 kg a.i./ha), nitrogen checks, benzyl alcohol (1.16L/ha) (BA) and a O nitrogen check are included for comparison. Individual replicate plot sizes are 3.04M×22.8M (4, 76-cm corn rows×22.8M long) Anhydrous ammonia are injected on 76-cm centers.
# Plots are then planted with corn the day following treatment. Dekalb T2000 is planted 10 May on silt loam plots and Pioneer 3352 is planted 11 May in sandy loam plots.
# Corn ear leaf tissues collected at silking on silt loam plots or 60 days post silking (on silt loam and sandy loam plots) are collected from each plot and assayed for total N (AOAC procedures). Grain yields are determined by harvesting the two center rows×15.2 m of each plot.
# [3] = system: Nitrobacter spp.; test: Nitrite nitrogen in ammonium amended soil incubated at 25° C.; details: soil 25° C., 200 ppm N
# Method: Determination of nitrite nitrogen and nitrate nitrogen in soil prepared in Example 1 above, which is amended with 200 ppm of nitrogen as aqueous ammonium sulfate, […], is determined using the nitrite and nitrate analysis of the American Organization of Analytical Chemists (AOAC pp. 653-655).
# [4] = system: Nitrosomonas spp.; test: Nitrification of ammonium in soil incubated at 25° C. (ammonium recovery, nitrate accumulation); details: soil 25° C.; for Concentration of nitrate nitrogen / Recovery of Ammonium Nitrogen: 200 ppm N; for Effectiveness as nitrification inhibitor, in words: 20 weeks study
# Outline: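 Silt loam soil (100 g, low residual N) at 50% water saturation given ammonium sulfate at 200 ppm N plus test compound at 0.10–0.50 ppm, duplicates, incubated 25 °C for up to 20 weeks. Inorganic N extracted with 2M KCl; ammonium, nitrite and nitrate measured by steam distillation.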
compound,measurement,setting,value
"CO[C@@H]1[C@@H](OC)[C@H](C)[C@@](O)(CC(=O)O)O[C@H]1[C@H](C)[C@H]1O[C@@]2(CC[C@@](C)([C@H]3CC[C@@](C)([C@@H]4O[C@@H]([C@H]5O[C@](C)(O)[C@H](C)C[C@@H]5C)C[C@@H]4O[C@@H]4C[C@H](OC)[C@@H](OC)[C@H](C)O4)O3)O2)C[C@H](O)[C@H]1C [Maduramicin monoammonium salt, Maduramicin]","Activity against Nitrabacter, in words",[1]; 0.5 ppm,no activity
same,"Nitrite, reported as nitrogen",[1]; week 0,9 ppm
same,"Nitrite, reported as nitrogen",[1]; week 1,8 ppm
same,"Nitrite, reported as nitrogen",[1]; week 2,4 ppm
same,"Nitrite, reported as nitrogen",[1]; week 4,3 ppm
same,"Nitrite, reported as nitrogen",[1]; week 7,-5 ppm
same,"Nitrite, reported as nitrogen",[1]; week 9,9 ppm
same,"Nitrite, reported as nitrogen",[1]; week 12,6 ppm
same,"Nitrite, reported as nitrogen",[1]; week 16,19 ppm
same,"Nitrite, reported as nitrogen",[1]; week 20,37 ppm
same,"Yield at the sandy loam location, in words","[2]; 0.56 kg a.i./hectare, both rates of NH3 and the lower rate of urea",significantly higher
same,AVERAGE YIELD 4-REPLICATES,"[2]; N 84 kg/ha as NH3, chemical 0.11 kg/ha",155.7 HECTOLITERS/HECTARE
same,AVERAGE YIELD 4-REPLICATES,"[2]; N 84 kg/ha as NH3, chemical 0.28 kg/ha",159.2 HECTOLITERS/HECTARE
same,AVERAGE YIELD 4-REPLICATES,"[2]; N 84 kg/ha as NH3, chemical 0.56 kg/ha",165.3 HECTOLITERS/HECTARE
same,AVERAGE YIELD 4-REPLICATES,"[2]; N 168 kg/ha as NH3, chemical 0.11 kg/ha",163.6 HECTOLITERS/HECTARE
same,AVERAGE YIELD 4-REPLICATES,"[2]; N 168 kg/ha as NH3, chemical 0.28 kg/ha",174.9 HECTOLITERS/HECTARE
same,AVERAGE YIELD 4-REPLICATES,"[2]; N 168 kg/ha as NH3, chemical 0.56 kg/ha",176.6 HECTOLITERS/HECTARE
same,Concentration of nitrite nitrogen,"[3]; 0.10 ppm, week 0",6 ppm
same,Concentration of nitrite nitrogen,"[3]; 0.10 ppm, week 1",17 ppm
same,Concentration of nitrite nitrogen,"[3]; 0.10 ppm, week 2",2 ppm
same,Concentration of nitrite nitrogen,"[3]; 0.10 ppm, week 4",3 ppm
same,Concentration of nitrite nitrogen,"[3]; 0.10 ppm, week 7",12 ppm
same,Concentration of nitrite nitrogen,"[3]; 0.10 ppm, week 9",49 ppm
same,Concentration of nitrite nitrogen,"[3]; 0.10 ppm, week 12",9 ppm
same,Concentration of nitrite nitrogen,"[3]; 0.10 ppm, week 16",14 ppm
same,Concentration of nitrite nitrogen,"[3]; 0.10 ppm, week 20",56 ppm
same,Concentration of nitrite nitrogen,"[3]; 0.25 ppm, week 0",7 ppm
same,Concentration of nitrite nitrogen,"[3]; 0.25 ppm, week 1",2 ppm
same,Concentration of nitrite nitrogen,"[3]; 0.25 ppm, week 2",7 ppm
same,Concentration of nitrite nitrogen,"[3]; 0.25 ppm, week 4",0 ppm
same,Concentration of nitrite nitrogen,"[3]; 0.25 ppm, week 7",-5 ppm
same,Concentration of nitrite nitrogen,"[3]; 0.25 ppm, week 9",12 ppm
same,Concentration of nitrite nitrogen,"[3]; 0.25 ppm, week 12",0 ppm
same,Concentration of nitrite nitrogen,"[3]; 0.25 ppm, week 16",-2 ppm
same,Concentration of nitrite nitrogen,"[3]; 0.25 ppm, week 20",33 ppm
same,Concentration of nitrite nitrogen,"[3]; 0.50 ppm, week 0",8 ppm
same,Concentration of nitrite nitrogen,"[3]; 0.50 ppm, week 1",10 ppm
same,Concentration of nitrite nitrogen,"[3]; 0.50 ppm, week 2",4 ppm
same,Concentration of nitrite nitrogen,"[3]; 0.50 ppm, week 4",4 ppm
same,Concentration of nitrite nitrogen,"[3]; 0.50 ppm, week 7",-8 ppm
same,Concentration of nitrite nitrogen,"[3]; 0.50 ppm, week 9",-4 ppm
same,Concentration of nitrite nitrogen,"[3]; 0.50 ppm, week 12",4 ppm
same,Concentration of nitrite nitrogen,"[3]; 0.50 ppm, week 16",-13 ppm
same,Concentration of nitrite nitrogen,"[3]; 0.50 ppm, week 20",14 ppm
same,"Effectiveness compared with 0.5 ppm nitrapyrin, in words",[4]; 0.10 ppm,not as effective as the 0.5 ppm rate of nitrapyrin
same,Concentration of nitrate nitrogen,"[4]; 0.10 ppm, week 0",18 PPM
same,Recovery of Ammonium Nitrogen,"[4]; 0.10 ppm, week 0",195 PPM
same,Concentration of nitrate nitrogen,"[4]; 0.10 ppm, week 1",20 PPM
same,Recovery of Ammonium Nitrogen,"[4]; 0.10 ppm, week 1",168 PPM
same,Concentration of nitrate nitrogen,"[4]; 0.10 ppm, week 2",19 PPM
same,Recovery of Ammonium Nitrogen,"[4]; 0.10 ppm, week 2",178 PPM
same,Concentration of nitrate nitrogen,"[4]; 0.10 ppm, week 4",24 PPM
same,Recovery of Ammonium Nitrogen,"[4]; 0.10 ppm, week 4",176 PPM
same,Concentration of nitrate nitrogen,"[4]; 0.10 ppm, week 7",75 PPM
same,Recovery of Ammonium Nitrogen,"[4]; 0.10 ppm, week 7",125 PPM
same,Concentration of nitrate nitrogen,"[4]; 0.10 ppm, week 9",59 PPM
same,Recovery of Ammonium Nitrogen,"[4]; 0.10 ppm, week 9",110 PPM
same,Concentration of nitrate nitrogen,"[4]; 0.10 ppm, week 12",152 PPM
same,Recovery of Ammonium Nitrogen,"[4]; 0.10 ppm, week 12",55 PPM
same,Concentration of nitrate nitrogen,"[4]; 0.10 ppm, week 16",153 PPM
same,Recovery of Ammonium Nitrogen,"[4]; 0.10 ppm, week 16",67 PPM
same,Concentration of nitrate nitrogen,"[4]; 0.10 ppm, week 20",134 PPM
same,Recovery of Ammonium Nitrogen,"[4]; 0.10 ppm, week 20",39 PPM
same,"Specific inhibition of nitrification through activity against Nitrosomonas spp., in words",[4]; 0.1 to 0.5 ppm,appear to specifically inhibit nitrification through activity against Nitrosomonas spp.
same,Concentration of nitrate nitrogen,"[4]; 0.25 ppm, week 0",19 PPM
same,Recovery of Ammonium Nitrogen,"[4]; 0.25 ppm, week 0",194 PPM
same,Concentration of nitrate nitrogen,"[4]; 0.25 ppm, week 1",18 PPM
same,Recovery of Ammonium Nitrogen,"[4]; 0.25 ppm, week 1",162 PPM
same,Concentration of nitrate nitrogen,"[4]; 0.25 ppm, week 2",19 PPM
same,Recovery of Ammonium Nitrogen,"[4]; 0.25 ppm, week 2",164 PPM
same,Concentration of nitrate nitrogen,"[4]; 0.25 ppm, week 4",19 PPM
same,Recovery of Ammonium Nitrogen,"[4]; 0.25 ppm, week 4",187 PPM
same,Concentration of nitrate nitrogen,"[4]; 0.25 ppm, week 7",21 PPM
same,Recovery of Ammonium Nitrogen,"[4]; 0.25 ppm, week 7",198 PPM
same,Concentration of nitrate nitrogen,"[4]; 0.25 ppm, week 9",25 PPM
same,Recovery of Ammonium Nitrogen,"[4]; 0.25 ppm, week 9",185 PPM
same,Concentration of nitrate nitrogen,"[4]; 0.25 ppm, week 12",23 PPM
same,Recovery of Ammonium Nitrogen,"[4]; 0.25 ppm, week 12",192 PPM
same,Concentration of nitrate nitrogen,"[4]; 0.25 ppm, week 16",64 PPM
same,Recovery of Ammonium Nitrogen,"[4]; 0.25 ppm, week 16",164 PPM
same,Concentration of nitrate nitrogen,"[4]; 0.25 ppm, week 20",85 PPM
same,Recovery of Ammonium Nitrogen,"[4]; 0.25 ppm, week 20",102 PPM
same,Time through which nitrification is delayed or inhibited,[4]; 0.5 ppm,≥ 20 weeks
same,Concentration of nitrate nitrogen,"[4]; 0.50 ppm, week 0",18 PPM
same,Recovery of Ammonium Nitrogen,"[4]; 0.50 ppm, week 0",194 PPM
same,Concentration of nitrate nitrogen,"[4]; 0.50 ppm, week 1",20 PPM
same,Recovery of Ammonium Nitrogen,"[4]; 0.50 ppm, week 1",162 PPM
same,Concentration of nitrate nitrogen,"[4]; 0.50 ppm, week 2",18 PPM
same,Recovery of Ammonium Nitrogen,"[4]; 0.50 ppm, week 2",166 PPM
same,Concentration of nitrate nitrogen,"[4]; 0.50 ppm, week 4",21 PPM
same,Recovery of Ammonium Nitrogen,"[4]; 0.50 ppm, week 4",170 PPM
same,Concentration of nitrate nitrogen,"[4]; 0.50 ppm, week 7",21 PPM
same,Recovery of Ammonium Nitrogen,"[4]; 0.50 ppm, week 7",194 PPM
same,Concentration of nitrate nitrogen,"[4]; 0.50 ppm, week 9",25 PPM
same,Recovery of Ammonium Nitrogen,"[4]; 0.50 ppm, week 9",193 PPM
same,Concentration of nitrate nitrogen,"[4]; 0.50 ppm, week 12",18 PPM
same,Recovery of Ammonium Nitrogen,"[4]; 0.50 ppm, week 12",189 PPM
same,Concentration of nitrate nitrogen,"[4]; 0.50 ppm, week 16",28 PPM
same,Recovery of Ammonium Nitrogen,"[4]; 0.50 ppm, week 16",209 PPM
same,Concentration of nitrate nitrogen,"[4]; 0.50 ppm, week 20",44 PPM
same,Recovery of Ammonium Nitrogen,"[4]; 0.50 ppm, week 20",175 PPM
same,"Effectiveness as nitrification inhibitor, in words",[4]; X-14868A monammonium salt,most effective nitrification inhibitor
same,"Effectiveness as nitrification inhibitor, in words",[4]; X-14868 monoammonium salt,considerably more effective than nitrapyrin
